System: Plasmodium berghei
Assay: Luciferase/luciferin-expressing antifolate-resistant parasites were used to infect a culture of HepG2 cells that were pre-incubated with compounds. Infected hepatocytes emit light due to the luciferase reaction. Assay results are presented as the percent inhibition of light emission compared to control. […]
Assay type: functional
Conditions: sporozoite; for IC90: read-out: LUCIFERASE INFECTION ASSAY - IC90

Row | SMILES | IC90 | also measured
1 | CC1C(c2ccccc2)N(C)C(c2ccccc2)CC1(O)c1ccc(F)cc1 (stereo not given) | > 8.01 µM | IC50 (PBLUC_HILL_SLOPE 3.61, PBLUC_R_SQUARED 0.228, read-out: LUCIFERASE INFECTION ASSAY - IC50): 7.47 µM
2 | O=C(Nc1cccc(Cl)c1)Nc1cccc(Cl)c1 | 5.51 µM | IC50 (PBLUC_HILL_SLOPE 3.72, PBLUC_R_SQUARED 0.618, read-out: LUCIFERASE INFECTION ASSAY - IC50): 3.05 µM
3 | COc1ccccc1N(C)S(=O)(=O)c1ccc(Cl)c(C(=O)Nc2cccc(C)n2)c1 | 2.83 µM | IC50 (PBLUC_HILL_SLOPE 3.61, PBLUC_R_SQUARED 0.716, read-out: LUCIFERASE INFECTION ASSAY - IC50): 1.54 µM
4 | NC(=O)c1ccsc1NC(=O)Cc1ccc(-c2ccccc2)cc1 | 3.7 µM | IC50 (PBLUC_HILL_SLOPE 3.68, PBLUC_R_SQUARED 0.581, read-out: LUCIFERASE INFECTION ASSAY - IC50): 2.04 µM
5 | CN1CCN(C(=O)c2cccc(-c3cnc4cnc(-c5ccccc5Oc5ccccc5)cn34)c2)CC1 | > 6.74 µM | IC50 (PBLUC_HILL_SLOPE 3.72, PBLUC_R_SQUARED 0.499, read-out: LUCIFERASE INFECTION ASSAY - IC50): 3.93 µM
6 | COc1cccc(NC(=O)N2CCc3nc(Nc4ccc(C(C)C)cc4)ncc3C2)c1 | > 7.9 µM | IC50 (PBLUC_HILL_SLOPE 3.71, PBLUC_R_SQUARED 0.181, read-out: LUCIFERASE INFECTION ASSAY - IC50): 6.78 µM
7 | COc1ccc(/C(C)=N/OCC(=O)O)cc1 | > 14.8 µM | IC50 (PBLUC_HILL_SLOPE 3.66, PBLUC_R_SQUARED 0.112, read-out: LUCIFERASE INFECTION ASSAY - IC50): > 14.8 µM
8 | CC(=O)c1cccc(-c2cnc3cnc(-c4cccnc4)cn23)c1 | > 10.5 µM | IC50 (PBLUC_HILL_SLOPE 3.62, PBLUC_R_SQUARED 0.754, read-out: LUCIFERASE INFECTION ASSAY - IC50): 6.77 µM
9 | COc1ccc(Cn2nc(C(=O)NC3CCCC3)c3c2CCN(C(=O)c2cc4ccccc4o2)C3)cc1 | > 6.62 µM | IC50 (PBLUC_HILL_SLOPE 3.73, PBLUC_R_SQUARED 0.19, read-out: LUCIFERASE INFECTION ASSAY - IC50): 4.5 µM
10 | Cc1ccc2nc(NC(=O)c3ccc(Cl)cc3)c(C(=O)NC3CCCCC3)n2c1 | 6.42 µM | IC50 (PBLUC_HILL_SLOPE 3.64, PBLUC_R_SQUARED 0.503, read-out: LUCIFERASE INFECTION ASSAY - IC50): 3.51 µM
11 | Cc1ccc(C)c(-n2nnnc2SCC(=O)NC(=O)NC23CC4CC(CC(C4)C2)C3)c1 | 9.88 µM | IC50 (PBLUC_HILL_SLOPE 3.63, PBLUC_R_SQUARED 0.524, read-out: LUCIFERASE INFECTION ASSAY - IC50): 5.39 µM
12 | O=C(Nc1nc2ccccn2c1C(=O)NC1CCCC1)c1c(F)cccc1F | > 8.59 µM | IC50 (PBLUC_HILL_SLOPE 3.61, PBLUC_R_SQUARED 0.639, read-out: LUCIFERASE INFECTION ASSAY - IC50): 6.29 µM
13 | Cc1cc(C(=O)N2CCc3sccc3C2)c2c(C)noc2n1 | > 10 µM | IC50 (PBLUC_HILL_SLOPE 3.72, PBLUC_R_SQUARED 0.0188, read-out: LUCIFERASE INFECTION ASSAY - IC50): > 10 µM
14 | CNC(=O)c1ccc(CN(C2CC2)S(=O)(=O)c2ccc(C)c(C)c2)cc1 | > 10 µM | IC50 (PBLUC_HILL_SLOPE 3.66, PBLUC_R_SQUARED 0.689, read-out: LUCIFERASE INFECTION ASSAY - IC50): 5.91 µM
15 | O=c1cc(Nc2ccc(F)cc2)c2ccccc2o1 | 12.8 µM | IC50 (PBLUC_HILL_SLOPE 3.61, PBLUC_R_SQUARED 0.0806, read-out: LUCIFERASE INFECTION ASSAY - IC50): 6.97 µM
16 | CC(C)(C)c1ccc(C2=NNC(=NCCCN3CCOCC3)SC2)cc1 | 9.2 µM | IC50 (PBLUC_HILL_SLOPE 3.6, PBLUC_R_SQUARED 0.412, read-out: LUCIFERASE INFECTION ASSAY - IC50): 5 µM
17 | CCOc1ccc(S(=O)(=O)/N=C2\C=C3N(CCO)CCOC3(O)c3ccccc32)cc1 (stereo not given) | > 10 µM | IC50 (PBLUC_HILL_SLOPE 3.7, PBLUC_R_SQUARED 0.815, read-out: LUCIFERASE INFECTION ASSAY - IC50): 7.21 µM
18 | CCCNC(=O)C1CN(C(=O)c2oc3ccccc3c2COc2ccccc2)c2ccccc2O1 (stereo not given) | > 10 µM | IC50 (PBLUC_HILL_SLOPE 3.71, PBLUC_R_SQUARED 0.44, read-out: LUCIFERASE INFECTION ASSAY - IC50): 6.61 µM
19 | CN(CC(=O)Nc1ccc(-c2nc3ccccc3[nH]2)cc1)S(=O)(=O)c1cccs1 | > 10 µM | IC50 (PBLUC_HILL_SLOPE 3.6, PBLUC_R_SQUARED 0.614, read-out: LUCIFERASE INFECTION ASSAY - IC50): 8.33 µM
20 | CNC(=O)CN(C)Cc1c(O)c(C(=O)NCc2ccccc2)cc2ccccc12 | > 10 µM | IC50 (PBLUC_HILL_SLOPE 3.62, PBLUC_R_SQUARED 0.233, read-out: LUCIFERASE INFECTION ASSAY - IC50): 8.75 µM

Row | SMILES | IC90 | also measured
21 | CCCCNC(=O)c1c(NC(=O)c2cc(F)ccc2C)nc2ccccn12 | > 8.96 µM | IC50 (PBLUC_HILL_SLOPE 3.71, PBLUC_R_SQUARED 0.517, read-out: LUCIFERASE INFECTION ASSAY - IC50): 6.93 µM
22 | C=CCn1c(N)c(-c2nc3ccccc3[nH]2)c2nc3ccccc3nc21 | > 9.69 µM | IC50 (PBLUC_HILL_SLOPE 3.6, PBLUC_R_SQUARED 0.636, read-out: LUCIFERASE INFECTION ASSAY - IC50): 5.99 µM
23 | OCc1ccc(-c2cnc3cnc(-c4ccsc4)cn23)cc1 | 8.46 µM | IC50 (PBLUC_HILL_SLOPE 3.6, PBLUC_R_SQUARED 0.458, read-out: LUCIFERASE INFECTION ASSAY - IC50): 4.59 µM
24 | Cn1cc(-c2cn3c(-c4cccc(OC(F)(F)F)c4)cnc3cn2)cn1 | > 9.18 µM | IC50 (PBLUC_HILL_SLOPE 3.72, PBLUC_R_SQUARED 0.643, read-out: LUCIFERASE INFECTION ASSAY - IC50): 5.44 µM
25 | O=C(Nc1nc2ccccc2[nH]1)c1ccc(-c2ccc(F)cc2)s1 | 5.74 µM | IC50 (PBLUC_HILL_SLOPE 3.71, PBLUC_R_SQUARED 0.757, read-out: LUCIFERASE INFECTION ASSAY - IC50): 3.18 µM
26 | CC(C)N1CCN(c2ccc(-c3cn4c(-c5cccc(O)c5)cnc4cn3)cc2)CC1 | > 7.98 µM | IC50 (PBLUC_HILL_SLOPE 3.65, PBLUC_R_SQUARED 0.123, read-out: LUCIFERASE INFECTION ASSAY - IC50): > 7.98 µM
27 | CCN1CCN(c2cc(C(C)(C)C)nc3c(-c4ccccc4)cnn23)CC1 | > 9.08 µM | IC50 (PBLUC_HILL_SLOPE 3.68, PBLUC_R_SQUARED 0.383, read-out: LUCIFERASE INFECTION ASSAY - IC50): 6.05 µM
28 | CCOC(=O)c1sc(N)c(C#N)c1COC(=O)/C=C/c1cn(-c2ccccc2)nc1-c1ccc(C)cc1 | > 10 µM | IC50 (PBLUC_HILL_SLOPE 3.64, PBLUC_R_SQUARED 0.326, read-out: LUCIFERASE INFECTION ASSAY - IC50): 6.32 µM
29 | CSc1sc(-c2ccnc(SCc3ccc(Cl)cc3)n2)c(-c2ccccc2)c1C#N | > 7.08 µM | IC50 (PBLUC_HILL_SLOPE 3.73, PBLUC_R_SQUARED 0.295, read-out: LUCIFERASE INFECTION ASSAY - IC50): 4.71 µM
30 | Cc1cccc(-c2cn3c(-c4ccc(C#N)cc4)cnc3cn2)c1C | 8.03 µM | IC50 (PBLUC_HILL_SLOPE 3.65, PBLUC_R_SQUARED 0.571, read-out: LUCIFERASE INFECTION ASSAY - IC50): 4.4 µM
31 | O=C(NCc1ccccc1)/C(=C/c1cn(-c2ccccc2)nc1-c1cccs1)c1nc2ccccc2[nH]1 | 9.82 µM | IC50 (PBLUC_HILL_SLOPE 3.73, PBLUC_R_SQUARED 0.245, read-out: LUCIFERASE INFECTION ASSAY - IC50): 5.45 µM
32 | COC(=O)c1cc(NC(=O)C(C)(C)Oc2ccc(Cl)cc2)ccc1F | > 10 µM | IC50 (PBLUC_HILL_SLOPE 3.63, PBLUC_R_SQUARED 0.0477, read-out: LUCIFERASE INFECTION ASSAY - IC50): > 10 µM
33 | CCCn1c(NC(=O)c2ccc(OCc3c(C)noc3C)c(OC)c2)nc2ccccc21 | > 10 µM | IC50 (PBLUC_HILL_SLOPE 3.7, PBLUC_R_SQUARED 0.447, read-out: LUCIFERASE INFECTION ASSAY - IC50): 6.12 µM
34 | Oc1cc2[nH]c3ccccc3c2cc1CN1CCN(Cc2ccccc2)CC1 | > 10 µM | IC50 (PBLUC_HILL_SLOPE 3.66, PBLUC_R_SQUARED 0.154, read-out: LUCIFERASE INFECTION ASSAY - IC50): 6.03 µM
35 | CN(C)CCNC(=O)c1ccc(-c2cn3c(-c4cccc(OC(F)(F)F)c4)cnc3cn2)cc1 | > 7.03 µM | IC50 (PBLUC_HILL_SLOPE 3.61, PBLUC_R_SQUARED 0.27, read-out: LUCIFERASE INFECTION ASSAY - IC50): 5.86 µM
36 | Cc1cc(=O)nc(N/N=C/c2c(C)nn(-c3ccccc3)c2Oc2ccc(F)cc2)[nH]1 | > 10 µM | IC50 (PBLUC_HILL_SLOPE 3.64, PBLUC_R_SQUARED 0.538, read-out: LUCIFERASE INFECTION ASSAY - IC50): 6.15 µM
37 | CCCN(CC(=O)Nc1cc(-c2ccccc2)sc1C(=O)OCC)Cc1nnc(-c2ccco2)o1 | > 10 µM | IC50 (PBLUC_HILL_SLOPE 3.67, PBLUC_R_SQUARED 0.341, read-out: LUCIFERASE INFECTION ASSAY - IC50): 7.32 µM
38 | S=C(Nc1ccc(Cl)c(Cl)c1)N1c2ccccc2-n2cccc2C1c1cccnc1 (stereo not given) | 6.49 µM | IC50 (PBLUC_HILL_SLOPE 3.68, PBLUC_R_SQUARED 0.381, read-out: LUCIFERASE INFECTION ASSAY - IC50): 3.57 µM
39 | CN(C)CC(=O)N1CCN(c2nc(/C=C/c3ccccc3)nc3sc4c(c23)CCCC4)CC1 | 5.01 µM | IC50 (PBLUC_HILL_SLOPE 3.64, PBLUC_R_SQUARED 0.565, read-out: LUCIFERASE INFECTION ASSAY - IC50): 2.74 µM
40 | FC(F)(F)c1cc(NCc2ccccc2Cl)nc(-c2ccccn2)n1 | 6.29 µM | IC50 (PBLUC_HILL_SLOPE 3.68, PBLUC_R_SQUARED 0.577, read-out: LUCIFERASE INFECTION ASSAY - IC50): 3.46 µM
